Laboratory results reported in patent US8236340B2, “Drug formulations for coating medical devices” (REVA Medical, Inc., priority 2003, dated 2012).

Columns and labels:
[1] = Solubility/dispersibility of drug in the three formulation approaches; assay type: physicochemical; settings: all three formulation approaches; all components first dissolved in a volatile solvent such as ethanol
From the text: In all cases the drug was coated onto a balloon from an ethanol solution containing C6-ceramide and the other solvents in each formulation. Once the ethanol evaporated from the surface of the device, the drug was uniformly dispersed over the surface and dissolved within the non-volatile solvent(s). The ethanol was useful in that it decreased the viscosity of the oil/drug mixture thereby promoting uniform coating.

[2] = Physical stability of drug coated on balloon from dimethylsulfoxide/ethanol solution; assay type: physicochemical
From the text: Initially, the deposited lipid form a translucent film, but within an hour or so the deposited material slowly transforms to a white crystallite appearance. The deposition uniformity as measured by microscopy is spotty across the balloon surface. After several days, the white powder continues to transform until it flakes off the balloon and is no longer believed to be in an available state. Decreased availability may be described as the dissolution/deaggregation time of the solid relative to deposition and diffusion within the artery, which prevents it from exerting its effect. Currently, to study the effect of C6-ceramide in animal models, the DMSO/ethanol formulation containing C6-ceramide is coated onto the balloon just prior to insertion into the artery. The role of the solvent is to keep the lipid material in an available film-like state sufficient for it to be rapidly deposited and absorbed quickly in the artery, where it is shown to exert an effect within 15 minutes. However, organic solvents, in which the drug is very soluble, tend to evaporate rapidly and the solvents may also penetrate and affect the balloon performance. Alternative solvents and formulations are needed that permit the drug to remain in a dissolved state yet remain physically stable without changing with time.

[3] = system: smooth muscle cell (SMC) proliferation; settings: cited from earlier work

solubility/dispersibility in formulation approaches [1]: sufficiently soluble and/dispersible
Structure (SMILES): CCCCCCCCCCCCC/C=C/[C@@H](O)[C@H](CO)NC(=O)CCCCC [C6-ceramide]
physical form of deposited drug over time [2]: physical form of the drug changes with time
time to initiate activity ([3]; after application of a single dose from an angioplasty balloon): ≤ 15 min
SMC proliferation ([3]; in vitro cell culture and in vivo (rabbit carotid model and pig coronary)): inhibit SMC proliferation
